# Results as given in US20040072206A1, “Method for identifying modulators of transcription” (priority 2000, published 2004).
# Target: T1, B. subtilis RNAP (Bacillus subtilis, UniProt P37870+P37871)
# T1 construct: endogenous in cells; host or cells: Bacillus subtilis strain PL37 (built from strain 168)
# Experiment: Dual reporter assay in strain PL37: test reporter Pxyl-lacZ and ratio of control to test reporter (RES:MUG)
# Assay type: cell-based
# Details: for Ratio of the control reporter (RES): test reporter (MUG): strain PL37, DMSO control […]
# Description: 20 known antibiotics were tested at a range of concentrations to determine their effect on test and control reporters within the assay. […] Cultures of PL37 grown in PAB, were diluted to 0.05 A600 and then grown for 2 hours at 37° C. in PAB supplemented with 0.02 mM IPTG. Cells were pelleted and frozen. They were later resuspended and diluted in PAB supplemented with 0.02 mM IPTG and grown at 37° C. to early exponential phase. Cultures were then diluted to 0.05 A600 in PAB and added in 20 μl volumes to wells of microtitre plates containing 20 μl volumes of the antibiotics. Plates were incubated at 37° C. for two hours, and assay mix was added to detect reporter enzyme activity (see below).
# Following the addition of 160 μl of assay mix (1.3×Z buffer containing 94 μg/ml lysozyme, 8.4 μg/ml 4-methylumbelliferyl-β-D-galactoside, 0.53 μg/ml resorufin-β-D-glucuronide and 0.05% Triton) to each well, the microtitre plate was incubated in the dark for 30 mini or 1 hour at room temperature. Fluorescence was read on a BMG FLUOstar Galaxy at excitation/emission 355/460 nm and 544/590 nm, respectively, with gains set at 5 and 25, respectively.
# [1] = Dilution Number 1 (highest concentration tested: 128, 16 or 0.5 μg/ml depending on antibiotic)
# [2] = Dilution Number 11 (lowest concentration tested: 0.125, 0.016 or 0.0005 μg/ml depending on antibiotic)
# T1 sequence (P37871 whole entry): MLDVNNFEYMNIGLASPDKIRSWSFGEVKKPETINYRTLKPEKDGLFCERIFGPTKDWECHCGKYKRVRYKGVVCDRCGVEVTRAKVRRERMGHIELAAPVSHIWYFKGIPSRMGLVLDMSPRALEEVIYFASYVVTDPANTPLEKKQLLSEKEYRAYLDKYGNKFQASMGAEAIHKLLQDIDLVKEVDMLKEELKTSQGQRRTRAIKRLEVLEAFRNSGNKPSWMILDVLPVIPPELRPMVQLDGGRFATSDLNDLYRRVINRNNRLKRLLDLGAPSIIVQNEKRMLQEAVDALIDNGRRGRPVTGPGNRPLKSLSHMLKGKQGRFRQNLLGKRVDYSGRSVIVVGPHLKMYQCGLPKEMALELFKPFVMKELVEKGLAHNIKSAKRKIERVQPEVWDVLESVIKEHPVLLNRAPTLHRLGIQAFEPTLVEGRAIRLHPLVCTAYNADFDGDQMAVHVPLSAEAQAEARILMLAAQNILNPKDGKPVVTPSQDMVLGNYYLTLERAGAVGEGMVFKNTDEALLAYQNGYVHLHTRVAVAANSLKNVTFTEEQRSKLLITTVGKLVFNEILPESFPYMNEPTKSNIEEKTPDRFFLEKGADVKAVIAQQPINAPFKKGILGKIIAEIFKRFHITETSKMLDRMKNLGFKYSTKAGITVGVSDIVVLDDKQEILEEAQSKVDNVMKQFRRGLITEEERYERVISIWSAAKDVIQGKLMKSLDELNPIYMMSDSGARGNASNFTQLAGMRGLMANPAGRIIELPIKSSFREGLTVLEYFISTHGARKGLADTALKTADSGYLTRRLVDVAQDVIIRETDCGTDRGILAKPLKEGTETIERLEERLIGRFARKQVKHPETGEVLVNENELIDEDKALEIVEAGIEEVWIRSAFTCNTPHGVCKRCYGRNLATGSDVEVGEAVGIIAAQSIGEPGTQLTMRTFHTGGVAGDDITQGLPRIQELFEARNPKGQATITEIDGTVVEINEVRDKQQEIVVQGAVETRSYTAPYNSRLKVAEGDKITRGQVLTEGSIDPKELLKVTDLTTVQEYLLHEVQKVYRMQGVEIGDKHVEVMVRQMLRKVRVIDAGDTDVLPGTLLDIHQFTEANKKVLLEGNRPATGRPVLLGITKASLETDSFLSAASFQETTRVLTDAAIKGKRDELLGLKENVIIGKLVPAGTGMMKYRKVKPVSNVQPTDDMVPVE
# T1 sequence (P20429 whole entry, further chain): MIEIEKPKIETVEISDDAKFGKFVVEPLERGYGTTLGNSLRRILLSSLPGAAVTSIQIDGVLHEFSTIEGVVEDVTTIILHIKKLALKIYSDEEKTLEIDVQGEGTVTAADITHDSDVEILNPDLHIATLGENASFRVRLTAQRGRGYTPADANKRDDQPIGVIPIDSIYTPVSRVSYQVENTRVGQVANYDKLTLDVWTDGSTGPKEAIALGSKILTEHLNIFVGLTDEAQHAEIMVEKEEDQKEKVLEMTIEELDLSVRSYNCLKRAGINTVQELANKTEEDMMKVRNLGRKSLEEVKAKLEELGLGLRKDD
# T1 sequence (O35011 whole entry, further chain): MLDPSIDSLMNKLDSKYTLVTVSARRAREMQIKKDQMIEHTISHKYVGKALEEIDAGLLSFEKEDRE
# T1 sequence (P37870 whole entry): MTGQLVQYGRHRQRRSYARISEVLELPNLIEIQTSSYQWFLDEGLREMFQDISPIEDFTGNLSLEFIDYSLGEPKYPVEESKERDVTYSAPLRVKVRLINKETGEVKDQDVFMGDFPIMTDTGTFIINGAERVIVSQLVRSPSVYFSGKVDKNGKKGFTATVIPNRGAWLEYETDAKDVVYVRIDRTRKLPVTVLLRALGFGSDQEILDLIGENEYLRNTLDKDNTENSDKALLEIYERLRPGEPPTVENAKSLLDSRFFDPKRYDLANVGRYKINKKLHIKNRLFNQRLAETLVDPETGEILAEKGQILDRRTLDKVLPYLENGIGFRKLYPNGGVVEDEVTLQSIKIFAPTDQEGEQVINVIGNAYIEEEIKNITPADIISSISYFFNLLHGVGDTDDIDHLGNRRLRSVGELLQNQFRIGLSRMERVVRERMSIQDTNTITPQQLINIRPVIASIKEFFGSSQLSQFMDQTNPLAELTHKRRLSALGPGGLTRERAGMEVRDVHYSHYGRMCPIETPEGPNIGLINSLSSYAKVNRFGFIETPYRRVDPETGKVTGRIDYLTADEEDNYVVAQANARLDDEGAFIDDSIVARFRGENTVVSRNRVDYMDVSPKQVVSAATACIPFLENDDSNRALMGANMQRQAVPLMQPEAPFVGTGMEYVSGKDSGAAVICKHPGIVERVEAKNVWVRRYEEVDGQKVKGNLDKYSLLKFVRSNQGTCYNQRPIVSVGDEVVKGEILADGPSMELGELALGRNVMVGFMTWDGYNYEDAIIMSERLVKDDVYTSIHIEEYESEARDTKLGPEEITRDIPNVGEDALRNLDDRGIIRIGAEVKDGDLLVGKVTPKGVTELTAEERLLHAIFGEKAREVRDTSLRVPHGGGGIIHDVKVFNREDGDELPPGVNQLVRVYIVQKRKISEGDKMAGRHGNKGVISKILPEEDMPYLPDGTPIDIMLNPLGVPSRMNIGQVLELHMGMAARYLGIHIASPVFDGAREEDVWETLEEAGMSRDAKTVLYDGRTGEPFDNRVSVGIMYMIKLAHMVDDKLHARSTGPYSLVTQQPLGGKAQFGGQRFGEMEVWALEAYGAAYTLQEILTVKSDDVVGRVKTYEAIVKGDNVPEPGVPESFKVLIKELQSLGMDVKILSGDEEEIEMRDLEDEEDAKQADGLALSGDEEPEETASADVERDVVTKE
Compound,Ratio of the control reporter (RES): test reporter (MUG) [1],Ratio of the control reporter (RES): test reporter (MUG) (Dilution Number 2),Ratio of the control reporter (RES): test reporter (MUG) (Dilution Number 3),Ratio of the control reporter (RES): test reporter (MUG) (Dilution Number 4),Ratio of the control reporter (RES): test reporter (MUG) (Dilution Number 5),Ratio of the control reporter (RES): test reporter (MUG) (Dilution Number 6),Ratio of the control reporter (RES): test reporter (MUG) (Dilution Number 7),Ratio of the control reporter (RES): test reporter (MUG) (Dilution Number 8),Ratio of the control reporter (RES): test reporter (MUG) (Dilution Number 9),Ratio of the control reporter (RES): test reporter (MUG) (Dilution Number 10),Ratio of the control reporter (RES): test reporter (MUG) [2],"Reporter expression (both reporter activities) (strain PL37, FIG. 5 and FIG. 6)"
CCC[C@@H]1C[C@@H](C(=O)N[C@@H]([C@H]2O[C@H](SC)[C@H](O)[C@@H](O)[C@H]2O)[C@@H](C)O)N(C)C1 [Lincomycin],1.09,1.20,1.29,1.61,1.91,1.40,1.08,0.99,1.02,1.03,1.08,
CC[C@@]1([C@@H]2O[C@@H]([C@H]3O[C@@](O)(CO)[C@H](C)C[C@@H]3C)C[C@@H]2C)CC[C@H]([C@]2(C)CC[C@]3(C[C@H](O)[C@@H](C)[C@@H]([C@@H](C)[C@@H](OC)[C@H](C)C(=O)O)O3)O2)O1 [Monensin],1.74,1.42,1.45,1.79,2.06,2.00,1.88,1.74,1.54,1.37,1.33,
CCn1cc(C(=O)O)c(=O)c2ccc(C)nc21 [Nalidixic Acid],1.50,1.76,1.74,0.87,0.68,0.91,1.18,1.25,1.26,1.26,1.22,
CO[C@@H]1[C@@H](OC(N)=O)[C@@H](O)[C@H](Oc2ccc3c(O)c(NC(=O)c4ccc(O)c(CC=C(C)C)c4)c(=O)oc3c2C)OC1(C)C [Novobiocin],1.33,1.70,1.66,1.49,1.24,0.81,0.85,1.05,1.14,1.18,1.19,
CCn1cc(C(=O)O)c(=O)c2cc3c(cc21)OCO3 [Oxolinic Acid],0.89,1.33,1.63,1.77,2.02,1.86,0.96,1.06,1.05,1.14,1.17,
CC1(C)S[C@@H]2[C@H](NC(=O)Cc3ccccc3)C(=O)N2[C@H]1C(=O)O [Penicillin G],1.77,1.72,1.70,1.76,1.81,1.80,1.84,1.64,1.01,1.01,1.07,
CN[C@@H]1[C@H](O)[C@H](NC)[C@H]2O[C@@]3(O)C(=O)C[C@@H](C)O[C@H]3O[C@@H]2[C@H]1O [Spectinomycin],1.30,1.23,1.21,1.14,1.16,1.14,1.08,1.10,1.10,1.10,1.13,remained unchanged
CC(O)C(=O)O.COc1cc(Cc2cnc(N)nc2N)cc(OC)c1OC [Trimethoprim Lactate],0.62,0.55,0.54,0.52,0.54,0.58,0.68,0.65,0.63,0.81,1.00,
CN[C@H](CC(C)C)C(=O)N[C@H]1C(=O)N[C@@H](CC(N)=O)C(=O)N[C@H]2C(=O)N[C@H]3C(=O)N[C@H](C(=O)N[C@H](C(=O)O)c4cc(O)cc(O)c4-c4cc3ccc4O)[C@H](O)c3ccc(c(Cl)c3)Oc3cc2cc(c3O[C@@H]2O[C@H](CO)[C@@H](O)[C@H](O)[C@H]2O[C@H]2C[C@](C)(N)[C@H](O)[C@H](C)O2)Oc2ccc(cc2Cl)[C@H]1O [Vancomycin],,,,,,,1.03,1.04,1.07,1.11,1.12,
Polymyxin,1.19,1.22,1.21,1.23,1.44,1.24,1.20,1.15,1.16,1.16,1.17,
